Activity calls are given as the source filed them. The calls are words filed in the database; no cut-off is given here.
These molecules were tested against T1, Signal transducer and activator of transcription 6 (Homo sapiens) (UniProt P42226) (assay: Inhibition of STAT6 in human IL4-stimulated FW4 cells at 10 uM). Conditions: not given.
T1 sequence (whole entry): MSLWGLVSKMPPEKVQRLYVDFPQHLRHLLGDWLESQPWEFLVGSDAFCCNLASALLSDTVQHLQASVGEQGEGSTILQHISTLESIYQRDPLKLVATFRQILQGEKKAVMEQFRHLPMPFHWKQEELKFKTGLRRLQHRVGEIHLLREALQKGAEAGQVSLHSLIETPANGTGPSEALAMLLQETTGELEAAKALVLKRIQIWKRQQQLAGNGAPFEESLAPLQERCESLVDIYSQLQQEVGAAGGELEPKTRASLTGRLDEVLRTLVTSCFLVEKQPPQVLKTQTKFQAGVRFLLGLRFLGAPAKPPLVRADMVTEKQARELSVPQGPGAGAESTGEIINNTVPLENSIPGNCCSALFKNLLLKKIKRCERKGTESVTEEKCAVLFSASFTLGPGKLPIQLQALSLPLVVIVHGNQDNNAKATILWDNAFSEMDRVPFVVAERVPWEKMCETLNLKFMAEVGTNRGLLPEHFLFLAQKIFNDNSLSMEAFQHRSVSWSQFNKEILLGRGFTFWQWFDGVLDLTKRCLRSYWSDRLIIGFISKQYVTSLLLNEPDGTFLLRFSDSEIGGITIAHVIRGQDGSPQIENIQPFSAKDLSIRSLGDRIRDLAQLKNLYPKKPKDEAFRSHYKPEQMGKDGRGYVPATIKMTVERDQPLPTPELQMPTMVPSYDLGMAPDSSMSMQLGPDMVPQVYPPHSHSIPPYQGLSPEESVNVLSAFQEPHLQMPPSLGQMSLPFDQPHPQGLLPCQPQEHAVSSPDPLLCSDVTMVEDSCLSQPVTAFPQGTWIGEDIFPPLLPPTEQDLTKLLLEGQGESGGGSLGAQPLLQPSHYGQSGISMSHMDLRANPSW

Compound | inhibition
COc1ccc(CCNc2ncc(C(N)=O)c(Nc3cccc(C)c3)n2)cc1 | 49%
Cc1cccc(Nc2nc(NCCc3ccccc3)ncc2C(N)=O)c1 | 16%
Cc1cccc(Nc2nc(CCCc3ccc(O)cc3)ncc2C(N)=O)c1 | 32%
Cc1cccc(Nc2nc(NCCCc3ccc(O)cc3)ncc2C(N)=O)c1 | 23%

More lines, now with the values ahead:

inhibition | Compound
19% | Cc1cccc(Nc2nc(NCc3ccc(O)cc3)ncc2C(N)=O)c1
15% | Cc1cccc(Nc2nc(NCCc3ccccc3O)ncc2C(N)=O)c1

These molecules were tested against T2, Signal transducer and activator of transcription 6 (Homo sapiens, UniProt P42226) (assay: Inhibition of STAT6 in human IL4-stimulated FW4 cells). Conditions: not given.
T2 sequence (P42226 whole entry): T1 sequence (whole entry)

Compound | IC50
Cc1cccc(Nc2nc(NCCc3ccc(O)c(Br)c3)ncc2C(N)=O)c1 | 0.083 µM
CNC(=O)c1cnc(NCCc2ccc(O)cc2)nc1Nc1cccc(C)c1 | 0.17 µM
Cc1cccc(Nc2nc(NCCc3cccc(O)c3)ncc2C(N)=O)c1 | 3 µM
NC(=O)c1cnc(NCCc2ccc(O)c(Cl)c2)nc1NCc1ccccc1 | 0.021 µM
Cc1cccc(Nc2nc(NCCc3ccc(O)c(C)c3)ncc2C(N)=O)c1 | 0.13 µM
NC(=O)c1cnc(NCCc2ccc(O)cc2)nc1NCc1ccccc1 | 0.088 µM
Cc1cccc(Nc2nc(NCCc3ccc(O)cc3)ncc2C(N)=O)c1 | 0.19 µM
NC(=O)c1cnc(NCCc2ccc(O)cc2)nc1NC1CCCCC1 | 0.1 µM

More lines, now with the values ahead:

IC50 | Compound
0.03 µM | CNC(=O)c1cnc(NCCc2ccc(O)c(Cl)c2)nc1NCc1ccccc1
8.2 µM | Cc1cccc(Nc2nc(NCCc3ccc(O)cc3)ncc2C(=O)N(C)C)c1
0.38 µM | CCNC(=O)c1cnc(NCCc2ccc(O)cc2)nc1Nc1cccc(C)c1
0.064 µM | Cc1cccc(Nc2nc(NCCc3ccc(O)c(F)c3)ncc2C(N)=O)c1
0.045 µM | Cc1cccc(Nc2nc(NCCc3ccc(O)c(Cl)c3)ncc2C(N)=O)c1
1.1 µM | Cc1cccc(Nc2nc(NCCc3ccc(O)cc3)ncc2C(=O)NC(C)C)c1
0.66 µM | COc1cc(CCNc2ncc(C(N)=O)c(Nc3cccc(C)c3)n2)ccc1O
0.41 µM | NC(=O)c1cnc(NCCc2ccc(O)cc2)nc1Nc1ccccc1

Each molecule was assayed on T-cell (assay: Effect on differentiation of C57BL/6 mouse T cells assessed as inhibition of IL4 production). Conditions: C57BL/6, T-cell.
Assay type: functional, cell-based

IC50 | Compound
0.0023 µM | NC(=O)c1cnc(NCCc2ccc(O)c(Cl)c2)nc1NCc1ccccc1
0.014 µM | Cc1cccc(Nc2nc(NCCc3ccc(O)cc3)ncc2C(N)=O)c1

Each molecule was assayed on T-cell (assay: Effect on differentiation of C57BL/6 mouse T cells assessed as inhibition of IL12-induced TFN-gamma production). Conditions: not given.
Assay type: functional, cell-based

Compound | Activity
NC(=O)c1cnc(NCCc2ccc(O)c(Cl)c2)nc1NCc1ccccc1 | inactive
Cc1cccc(Nc2nc(NCCc3ccc(O)cc3)ncc2C(N)=O)c1 | inactive
